The test system of data set [1] is binding site of miR-330-5p in the 3'UTR of tyrosinase (TYR), WT. Nature of the data set: Luciferase reporter assay, wild-type (WT) TYR 3'UTR binding site. The data set is classed as cell-based. As to conditions: Lu1205 human melanoma cells, 50 nM mimetic co-transfected, relative to control without insert. An excerpt: (§1) The predicted binding site of miR-330-5p in the 3′UTR (position 68-75 of 3′UTR with total length of 393nt) of TYR (NM 000372) including the adjacent bases was designed using the following primers, and was cloned into the pmirGLO reporter vector (Promega) downstream of the region coding for firefly luciferase and using the Pmel and XbaI sites.
(§2) Ligation of the primers LL2086 (sense) and LL2087 (antisense) represents the wild-type (WT) TYR 3′UTR sequence, whereas ligation of the primers LL2088 (sense) and LL2089 (antisense) represents the mutated form of the binding site of the miR-330-Site 5p in the 3′UTR TYR region (MUT). All the constructs were confirmed by sequencing. On D0, 200,000 Lu1205 cells were seeded in 12-well plates. On D1, the Lu1205 cells were transfected with either 30 ng of pmirGLO empty vector (without insert), or 30 ng of WT construct, or 30 ng of MUT construct. At the same time, the cells were co-transfected with 50 nM of mimetic of miR-330-5p (Dharmacon) using Lipofectamine 2000 (Invitrogen). Forty-eight hours after transfection, the cells were collected and analyzed both with firefly luciferase and with Renilla luciferase (included in the pmirGLO vector) using the luciferase double assay (Promega) and a luminometer (Microlumatplus LB96V, Berthold Technologies). […] The relative luciferase activity was calculated, establishing the condition of non-insertion as 1.
(In general: A reporter such as luciferase makes a cellular process visible.)

Data set [2] relates to mutated form of the binding site of miR-330-5p in the 3'UTR TYR region (MUT). Nature of the data set: Luciferase reporter assay, mutated (MUT) TYR 3'UTR binding site. The data set is classed as cell-based. As to conditions: Lu1205 human melanoma cells, 50 nM mimetic co-transfected, relative to control without insert.
Description: as §1, §2

The text below walks through data of patent US9410152B2, “Use of microrna molecules to influence skin pigmentation” (CHANEL PARFUMS BEAUTE, priority 2011, dated 2016).

Take “hsa-miR-330-5p: mimetic of miRNA hsa-mir-330-5p (Dharmacon C-301082-01-0005); mature sequence 5'-UCUCUGGGCCUGUGUCUUAGGC-3' (SEQ ID NO: 1) (UCUCUGGGCCUGUGUCUUAGGC; mimic duplex, passenger strand not given here; listed as Homo sapiens)”: the “luciferase activity, WT construct” value in data set [1] was “considerably reduced”. Further, the “luciferase activity, MUT construct” value in data set [2] was “restoration of luciferase activity”.
